# Results as given in ChEMBL document CHEMBL1201862, “PubChem BioAssay data set” (2004).
# Active and inactive are the calls of the source.
# What was measured:
# [1] = viability of PTEN-deleted HCT116 cells – cell-based, HCT116 PTEN knockout, dose response (AID 1047); type: functional;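 further: HCT116 colon tumor cells with PTEN knocked out; cells exposed to compound for 60 hours before readout; potency for loss of cell viability measured by luminescence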
# [2] = viability of HCT116 lacking mutant beta-catenin – cell-based, human colon tumor, dose response (AID 1045); type: functional;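 further: HCT116 colon tumor cells with beta catenin knocked out; cells exposed to compound for 60 hours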
# H9c2 = assay: cells; type: functional, cell-based; settings: Rattus norvegicus, H9c2, Myocardium;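 further: confirmatory concentration-response retest of ultra-high-throughput screening hits for modulation of myocardial damage; cell death induced by hydrogen peroxide oxidative stress; compound pretreatment for 60 min then peroxide exposure for 2 h; potency is for protecting the cells against peroxide damage rather than for killing them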
# Cytochrome P450 3A4 = Cytochrome P450 3A4 (Homo sapiens, UniProt P08684);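 further: CYP3A4 tested as one member of a cytochrome P450 panel screen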
# [3] = molecular target: T1, Corticotropin-releasing factor receptor 2/Corticotropin-releasing factor-binding protein (Homo sapiens, UniProt P24387+Q13324); assay: activators of CRF receptor 2 with binding protein – uHTS hits, confirmation (AID 602473); type: functional; settings: read-out: EC50_Mean
# T1 sequence (Q13324 whole entry): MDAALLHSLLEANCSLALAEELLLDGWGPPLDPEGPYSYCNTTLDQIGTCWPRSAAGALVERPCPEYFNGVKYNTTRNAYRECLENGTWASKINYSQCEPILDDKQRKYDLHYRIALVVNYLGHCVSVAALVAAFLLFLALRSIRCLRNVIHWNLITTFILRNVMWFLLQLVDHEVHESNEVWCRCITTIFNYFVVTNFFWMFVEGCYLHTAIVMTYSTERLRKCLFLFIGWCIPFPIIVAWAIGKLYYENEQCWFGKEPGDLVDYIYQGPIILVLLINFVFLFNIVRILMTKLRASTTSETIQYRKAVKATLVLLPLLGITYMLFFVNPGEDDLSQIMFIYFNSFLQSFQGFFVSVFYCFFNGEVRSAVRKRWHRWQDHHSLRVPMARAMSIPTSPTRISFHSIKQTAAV
# T1 sequence (P24387 whole entry): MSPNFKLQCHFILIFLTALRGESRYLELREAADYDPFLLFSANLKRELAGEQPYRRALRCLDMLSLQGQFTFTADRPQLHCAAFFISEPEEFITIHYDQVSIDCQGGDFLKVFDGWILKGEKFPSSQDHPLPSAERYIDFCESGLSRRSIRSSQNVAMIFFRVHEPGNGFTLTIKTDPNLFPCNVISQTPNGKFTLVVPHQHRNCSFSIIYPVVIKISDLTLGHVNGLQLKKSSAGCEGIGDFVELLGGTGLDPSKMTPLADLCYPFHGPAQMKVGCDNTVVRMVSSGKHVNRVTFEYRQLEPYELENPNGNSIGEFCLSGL
# [4] = Luminescence Cell-Based Dose Confirmation HTS to Identify Activators of 5'UTR Stem-Loop Driven Alpha-Synuclein mRNA Translation in H4 Neuroglioblastoma Cells. [Related pubchem assays: 1829 (Project Summary), 1814 (Primary HTS)]; type: functional
# [5] = Luminescence Cell-Based Dose Response HTS to Identify Activators of Luciferase Translation or Activity in H4 […] Cells. [Related pubchem assays: 1829 (Project Summary), 1814 (Primary HTS)]; type: functional
# H4 = assay: Luminescence Cell-Based Dose Response HTS to Identify Activators of 5'UTR Stem-Loop Driven Prion Protein mRNA Translation in H4 Neuroglioblastoma Cells. [Related pubchem assays: 1829 (Project Summary), 1814 (Primary HTS)]; type: functional; settings: Homo sapiens
# Cytochrome P450 2C19 = Cytochrome P450 2C19 (Homo sapiens, UniProt P33261); assay: Cytochrome panel assay with activity outcomes. Panel member name: p450-cyp2c19 Compounds with AC50 equal or less than 10 uM are considered active; type: functional
# [6] = viability of uninfected HEp-2 cells – cell-based, HTS, cytotoxicity control for RSV inhibitor project, dose response (AID 2410); type: functional; settings: human respiratory syncytial virus
# [7] = Trypanosoma cruzi growth suppression in host cells – NIH3T3 host cells, beta-gal luminescence, confirmation (AID 2044); type: functional, cell-based;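 further: intracellular parasites grown in NIH/3T3 mouse fibroblasts as host cells; luminescent beta-galactosidase reporter signal from transgenic T. cruzi replicating inside host cells; inhibitors lower the luminescence signal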
# [8] = NIH3T3 cell viability loss – ATP luminescence, mouse fibroblasts, counter-screen, dose response (AID 2010); type: functional, cell-based;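 further: cells exposed to compound for about 90 hours before reading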
# Cytochrome P450 1A2 = molecular target: T2, Cytochrome P450 1A2 (Homo sapiens, UniProt P05177);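 further: PubChem cytochrome P450 panel assay, CYP1A2 panel member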
# T2 sequence (P05177 whole entry): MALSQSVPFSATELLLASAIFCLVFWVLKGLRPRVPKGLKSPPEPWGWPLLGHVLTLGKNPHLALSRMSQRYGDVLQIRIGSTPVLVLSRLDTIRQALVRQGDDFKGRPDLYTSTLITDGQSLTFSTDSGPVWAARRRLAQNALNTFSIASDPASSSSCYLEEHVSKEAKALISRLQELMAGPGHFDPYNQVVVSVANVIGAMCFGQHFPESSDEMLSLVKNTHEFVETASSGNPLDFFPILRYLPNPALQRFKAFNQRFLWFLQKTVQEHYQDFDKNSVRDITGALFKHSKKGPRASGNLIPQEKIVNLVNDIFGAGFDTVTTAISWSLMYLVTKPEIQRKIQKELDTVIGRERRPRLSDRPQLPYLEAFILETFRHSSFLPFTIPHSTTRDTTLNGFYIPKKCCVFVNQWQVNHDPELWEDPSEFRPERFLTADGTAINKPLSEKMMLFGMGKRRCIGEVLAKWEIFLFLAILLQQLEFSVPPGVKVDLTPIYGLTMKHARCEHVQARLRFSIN
# Chain of Cytochrome P450 2C19 (P33261 whole entry): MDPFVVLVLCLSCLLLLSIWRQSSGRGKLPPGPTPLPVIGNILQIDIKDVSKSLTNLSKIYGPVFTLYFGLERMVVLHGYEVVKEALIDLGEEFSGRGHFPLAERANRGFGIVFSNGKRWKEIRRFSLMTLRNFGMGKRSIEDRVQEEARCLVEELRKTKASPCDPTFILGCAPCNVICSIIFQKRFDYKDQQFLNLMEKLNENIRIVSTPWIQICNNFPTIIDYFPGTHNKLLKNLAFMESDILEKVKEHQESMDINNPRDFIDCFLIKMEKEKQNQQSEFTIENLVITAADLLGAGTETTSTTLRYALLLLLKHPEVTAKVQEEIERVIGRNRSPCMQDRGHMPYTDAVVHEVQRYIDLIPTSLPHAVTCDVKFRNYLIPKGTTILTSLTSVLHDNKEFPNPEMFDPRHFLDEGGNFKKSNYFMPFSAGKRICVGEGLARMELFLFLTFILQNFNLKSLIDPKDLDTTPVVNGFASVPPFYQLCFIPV
# Chain of Cytochrome P450 3A4 (P08684 whole entry): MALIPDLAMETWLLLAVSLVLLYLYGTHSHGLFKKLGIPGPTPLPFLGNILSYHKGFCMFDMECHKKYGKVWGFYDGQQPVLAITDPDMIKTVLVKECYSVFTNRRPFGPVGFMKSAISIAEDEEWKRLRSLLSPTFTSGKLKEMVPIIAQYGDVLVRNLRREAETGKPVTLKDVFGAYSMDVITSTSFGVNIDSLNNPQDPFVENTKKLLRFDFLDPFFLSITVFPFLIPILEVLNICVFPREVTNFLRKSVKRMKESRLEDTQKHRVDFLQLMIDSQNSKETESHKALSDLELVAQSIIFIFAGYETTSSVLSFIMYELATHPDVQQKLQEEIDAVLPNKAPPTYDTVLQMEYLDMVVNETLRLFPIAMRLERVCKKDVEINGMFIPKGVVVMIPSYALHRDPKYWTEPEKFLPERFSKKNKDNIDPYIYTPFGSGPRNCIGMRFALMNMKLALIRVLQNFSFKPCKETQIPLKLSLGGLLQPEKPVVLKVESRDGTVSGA
compound,measurement,setting,value
COC(=O)c1sccc1NC(=O)/C=C/c1ccc(Cl)cc1Cl,EC50,[1],13.8 µM (active)
same,EC50,[2],51.4 µM (active)
Cc1nc(SCC(=O)N2CCN(c3ccccc3)CC2)c2oc3ccccc3c2n1,IC50,H9c2,> 79 µM (inactive)
COc1ccc(-n2c(=O)c(-c3ccc(F)cc3)nc3cnc(OC)nc32)cc1,AC50,Cytochrome P450 3A4,15.8 µM (inconclusive)
CCN(CC)CCNC(=O)CCc1nnc(O)c2ccccc12,IC50,H9c2,> 79 µM (inactive)
O=c1[nH]c(=O)n(-c2ccccc2)c2c1C(C(F)(F)F)(C(F)(F)F)NC(CCC1CCCCC1)=N2,EC50,[3],7.07 µM (active)
CC(C)(C)c1ccc(C(=O)NC(=S)Nn2cnnc2)cc1,EC50,[4],> 120 µM (not active)
same,EC50,[5],69.9 µM (active)
same,EC50,H4,30.1 µM (active)
CC(C)C(=O)Nc1ccc(NC(=O)c2cccnc2)cn1,AC50,Cytochrome P450 2C19; read-out: AC50,7.08 µM (inconclusive)
[O-][n+]1c(CN2CCCCC2)nc2cccc3c2c1-c1ccccc1-3,AC50,Cytochrome P450 3A4,3.16 µM (inconclusive)
Cc1cc(O)n2nc(Nc3cccc(Cl)c3)nc2n1,EC50,[3],> 53 µM (inactive)
COc1ccc2[nH]cc(C(=O)CN3CCCCC3)c2c1,EC50,[3],> 53 µM (inactive)
CCOc1ccccc1C(=O)Nc1cccc2cccnc12,CC50,[6],30.4 µM (active)
CC(C)c1ccc(N2C(=O)[C@@H]3Cc4ccccc4CN3C2=O)cc1,EC50,[4],> 120 µM (not active)
same,EC50,[5],45 µM (active)
same,EC50,H4,> 120 µM (not active)
Cc1cc(SCC(=O)NCCN2C(=O)CSC2=O)nc2ccccc12,EC50,[4],> 120 µM (not active)
same,EC50,[5],> 120 µM (not active)
same,EC50,H4,> 120 µM (not active)
Cc1nn(CCOc2ccccc2)c(=O)n1-c1c(F)cccc1F,EC50,[4],15.3 µM (active)
same,EC50,[5],> 120 µM (not active)
same,EC50,H4,32.2 µM (active)
CC[N+](C)(CC)CCN1C(=O)c2ccccc2S1(=O)=O,AC50,Cytochrome P450 2C19,inconclusive
COC(=O)c1ccccc1S(=O)(=O)N(Cc1ccco1)Cc1cc2cc(OC)ccc2nc1O,IC50,H9c2,> 79 µM (inactive)
N=c1c2c(-c3ccccc3)c(-c3ccccc3)n(Cc3ccco3)c2ncn1CCN1CCOCC1,EC50,[7],1.53 µM (active)
same,EC50,[1],7.92 µM (active)
same,EC50,[8],> 60 µM (not active)
same,EC50,[2],8.19 µM (active)
CSCCC(NC(=O)c1ccco1)C(=O)OCc1cc([N+](=O)[O-])cc2c1OCOC2 (stereo not given),EC50,[3],6.29 µM (active)
COc1cc(/C=C(\C#N)c2nc3ccccc3s2)ccc1OCC(=O)Nc1ccccc1,EC50,[1],25.2 µM (active)
same,EC50,[2],560 µM (active)
COc1cc2[nH]c(C(=O)Nc3ccc(F)cc3)cc2c(OC)c1OC,EC50,[4],> 120 µM (not active)
same,EC50,[5],9.27 µM (active)
same,EC50,H4,> 120 µM (not active)
O=C(Nc1ccc(Cl)cc1)N1CCCN(Cc2ccc(F)cc2)C1,EC50,[1],17.2 µM (active)
same,EC50,[2],16.4 µM (active)
NNC(=O)CNc1cccc(Br)c1,AC50,Cytochrome P450 3A4,2.51 µM (inconclusive)
COc1ccc(Cl)cc1NC(=O)CSc1nnc(Cc2cccn2C)n1-c1ccc(F)cc1,EC50,[1],80.8 µM (active)
same,EC50,[2],72.9 µM (active)
CN1CCN(c2ccc(-c3ccnn3C(=O)Nc3cccc(C(F)(F)F)c3)cc2)CC1,EC50,[5],3.08 µM (active)
same,EC50,H4,5.98 µM (active)
COc1cc2c(cc1NC(=O)CSc1nccn1C)oc1ccccc12,EC50,[4],13 µM (active)
same,EC50,[5],7.9 µM (active)
same,EC50,H4,27.6 µM (active)
CCc1cccc2cc3c(N)c(C(=O)Nc4ccc(S(=O)(=O)N5CCCC5)cc4)sc3nc12,CC50,[6],38 µM (active)
CC(C(=O)NC1CCCC1)N(C(=O)Cn1nnc(-c2ccc(F)cc2)n1)c1ccccc1F (stereo not given),IC50,H9c2,> 79 µM (inactive)
CCn1ncc2c1C(=O)NC1c3ccccc3C(=O)N21 (stereo not given),IC50,H9c2,32 µM (inactive)
CN1/C(=C\C=C(/C#N)C(=O)Nc2ccccc2F)C(C)(C)c2ccccc21,EC50,[3],5.05 µM (active)
O=C(NCCNc1ccc([N+](=O)[O-])cc1)c1ccccc1Br,AC50,Cytochrome P450 3A4,28.2 µM (inconclusive)
Oc1nc(-c2ccccc2)n(-c2ccc(Cl)cc2)n1,EC50,[3],> 53 µM (inactive)
COc1ccc(OC)c(C(=O)CSc2nnc(Cc3cccs3)n2CCc2ccccc2)c1,AC50,Cytochrome P450 1A2,7.08 µM (inconclusive)
same,AC50,Cytochrome P450 3A4,39.8 µM (inconclusive)
Cc1cc(NC(=O)NC(=O)c2ccccc2)no1,EC50,[4],3.66 µM (active)
same,EC50,[5],7.68 µM (active)
same,EC50,H4,42.3 µM (inconclusive)
Cc1cccc(N2CCN(c3nc4ccc(Cl)cc4n4cnnc34)CC2)c1C,EC50,[1],19.1 µM (active)
same,EC50,[2],20 µM (active)
CC1SCC(=NOCc2ccccc2)CS1 (stereo not given),EC50,[4],14.5 µM (active)
same,EC50,[5],17.7 µM (active)
same,EC50,H4,18.2 µM (active)
Cn1c(C(=O)NCc2cccs2)cc2c(=O)n(C)c3ccccc3c21,IC50,H9c2,> 79 µM (inactive)
C[C@]12CC[C@H](O)C[C@@H]1CC[C@H]1[C@H]2CC[C@]2(C)[C@H](C(=O)CO)CC[C@@H]12,AC50,Cytochrome P450 3A4,1 µM (inconclusive)
COc1cccc(NC(=O)CN(C)C(=O)Cc2nnc(O)c3ccccc23)c1,IC50,H9c2,> 79 µM (inactive)
CCCN1CCC(=NNc2ccc(C(=O)O)cc2)CC1,EC50,[4],7.27 µM (active)
same,EC50,[5],30.4 µM (active)
same,EC50,H4,10.7 µM (active)
COc1ccc(-c2cn3c(C)c(C(=O)NC(C)(C)C)sc3n2)cc1,EC50,[4],1.06 µM (active)
same,EC50,[5],31.5 µM (active)
same,EC50,H4,> 120 µM (not active)
COc1ccc(-c2nc3cnc(N(C)C)nc3n(C[C@H]3CCCO3)c2=O)cc1,AC50,Cytochrome P450 3A4,6.31 µM (inconclusive)
O=C(/C=C/c1ccc(Cl)cc1)NCCN1CCOCC1,AC50,Cytochrome P450 2C19,inconclusive
O=C(CCn1c(=S)[nH]c2ccccc2c1=O)NCCCN1CCOCC1,AC50,Cytochrome P450 3A4,7.08 µM (inconclusive)
CN(CC(=O)Nc1ccccc1Br)C(=O)Cn1[nH]c(=O)c2ccccc2c1=O,IC50,H9c2,> 79 µM (inactive)
CC(OC(=O)CCc1nc(O)c2ccccc2n1)C(=O)Nc1ccc2c(c1)OCO2 (stereo not given),IC50,H9c2,39.1 µM (inactive)
CS(=O)(=O)Nc1ccc(-c2ccc3nccn3c2)cc1,IC50,H9c2,> 79 µM (inactive)
COc1ccc(C=CC(=O)c2ccc3cc(OC)c(OC)cc3c2)cc1OC,IC50,H9c2,> 79 µM (inactive)
O=C1[C@H]2[C@@H](c3ccc(C(F)(F)F)cc3)N[C@]3(CCCN(Cc4ccc(F)cc4)C3=O)[C@H]2C(=O)N1Cc1ccccc1,IC50,H9c2,> 79 µM (inactive)
COc1ccccc1NC(=O)COc1ccc(/C=N/NC(=O)c2cccnc2)cc1,IC50,H9c2,17.2 µM (active)
O=C1/C(=C\c2ccc(Br)o2)S/C(=N/c2ccccc2)N1c1ccccc1,AC50,Cytochrome P450 2C19; read-out: AC50,7.94 µM (inconclusive)
O=[N+]([O-])c1ccc(N/N=C2\CC3CC=CC23)cc1 (stereo not given),EC50,[4],15.2 µM (active)
same,EC50,[5],13.2 µM (active)
same,EC50,H4,24.3 µM (active)
COC(=O)c1ccc(/N=C/c2c(C(F)(F)F)n[nH]c2O)cc1,EC50,[4],> 120 µM (not active)
same,EC50,[5],> 120 µM (not active)
same,EC50,H4,> 120 µM (not active)
O=S(=O)(N/N=C\c1cccn1-c1ccccc1)c1ccc2ccccc2c1,AC50,Cytochrome P450 2C19; read-out: AC50,0.794 µM (inconclusive)
O=[N+]([O-])c1cccc(/C=N/N2CCN(Cc3ccccc3)CC2)c1,EC50,[4],14.7 µM (active)
same,EC50,[5],20.8 µM (active)
same,EC50,H4,20.2 µM (active)
